The results in this text go back to patent publication US8304393B2, “Epithelial cell growth promoter” (Patent Technology Development Inc., priority 2004, dated 2012).

The test system of the test is murine HBKs (hair bulb keratinocytes). The test can be described thus: HBK growth test (Example 5, AlamarBlue). The test is classed as cell-based, mouse. Particulars: for cell growth effect as compared with that on the control: 4 days culture; for concentration at which significant difference from control could be noted: Dunnett's multiple comparison test, p<0.05. From the text: The epithelial cell growth promoters of Examples 1 and 2 and Reference Examples 1 and 2 were subjected to a cell growth test for murine HBKs, respectively. The following culture medium and test medium were used.
DMEM (product code “D-5523”, a product by Sigma)
FBS (product code “10100756”, a product by Cansera International Inc.)
• 10% Penicillin/streptomycin (product code “15140-122”, a product by GIBCO) • 1% (b) Test medium MCDB153 (product code “M7403”, a product by Sigma) Insulin (product code “16634”, bovine, a product by Sigma) • 5 μg/ml Apo-transferrin (product code “T1147”, human, a product by Sigma) • 10 μg/ml EGF (product code “01-101”, murine, a product by Upstate Biotechnology Inc.) • […] BPE (product code “13028-014”, bovine pituitary extract, a product by GIBCO) • 35 μg/ml Water-soluble hydrocortisone (product code “174-00”, a product by NACALAI TESQUE INC.) • 0.5 μg/ml Ethanolamine (product code “012-12455”, a product of Wako Pure Chemical Industries Ltd.) • 100 μM o-phosphorylethanolamine (product code “P0503”, a product by Sigma) • 100 μM
The skin of a 5 day-old mouse was cut with a scalpel into strips of approximately 2-mm-wide skin slices, which were in turn immersed in a solution prepared by dissolving dispase (lot No. 0101, a product by GODO SHUSEI CO.) at a proportion of 500 U/ml in DMEM (product code “D-5523”, a product by Sigma) containing FBS (product code “10100756”, a product by Cansera International Inc.) in a concentration of 5%, and then kept standing at 4° C. for 16 hours. Subsequently, the epidermis was ablated and removed with tweezers from the skin slices to collect only dermis tissues. The thus obtained dermis tissues were immersed in PBS (−) (product code “P-4417”, a product by Sigma) and cut into strips with opthalmological scissors. The thus obtained strips were immersed in a solution prepared by dissolving collagenase (lot No. 001014W, a product by Nitta Gelatin Inc.) in a concentration of 0.2% in DMEM containing FBS in a concentration of 5%, and then digested at 37° C. for 1 hour. After centrifugation at 1000 rpm for 5 minutes, the supernatant was removed, and the residue was supplemented with PBS (−) and gently pipetted to prepare a dermis suspension.
For separating dermal fibroblasts and hair bulbs, the dermis suspension was kept standing for 15 minutes to precipitate only the hair bulbs. The hair bulbs obtained by repeating the “standing to precipitation” procedure three times were immersed in a solution prepared by dissolving, in 2.65 mM EDTA aqueous solution, trypsin in a concentration of 0.25%, and then treated at 37° C. for 5 minutes to prepare a dispersion solution of HBKs.
Next, this dispersion solution was centrifuged at 1000 rpm for 5 minutes. After this centrifugation, the supernatant was removed. The thus obtained HBKs were dispersed in a culture medium, then inoculated into a collagen-coated 96-well microplate, and cultured at 37° C. in an atmosphere containing 5% CO2.
The isoleucyl-glycyl-serine (hereinafter, abbreviated to IGS), prolyl-isoleucyl-glycine (hereinafter, abbreviated to PIG), prolyl-isoleucyl-glycyl-serine (SEQ ID NO: 2) (hereinafter, abbreviated to PIGS), and glycyl-prolyl-isoleucyl-glycine (SEQ ID NO: 1) (hereinafter, abbreviated to GPIG) obtained in Examples 1 and 2 and Reference Examples 1 and 2 were separately dissolved in a test media to prepare 6 types of sample solutions each in a concentration of 0.3 μM, 1 μM, 3 μM, 10 μM, 30 μM, and 100 μM. Only a test medium was used as a control.
After 24 hours from the inoculation of the cells, the culture solutions were removed, and the cultured cells were washed with an MCDB153 solution. Each of the above-mentioned sample solutions was added to the cultured cell at 100 μl/well and cultured at 37° C. in an atmosphere containing 5% CO2. […]
A general note: Alamar Blue is a resazurin reagent that responds to reducing activity.

Molecules are shown by their SMILES.

For `CC[C@H](C)[C@H](NC(=O)[C@@H]1CCCN1C(=O)CN)C(=O)NCC(=O)O` (racemic) [GPIG, glycyl-prolyl-isoleucyl-glycine], the “concentration at which significant difference from control could be noted” value is at least 0.3 µM. Moreover, the “cell growth effect as compared with that on the control” value (0.3 μM) is recorded as 105%. In addition, where the note is “1 μM”, the “cell growth effect as compared with that on the control” value is on record as 108%. In addition, the “cell growth effect as compared with that on the control” value (3 μM) was 118%. The “cell growth effect as compared with that on the control” value (10 μM) is listed as 133%. Also, for the setting “30 μM”, the “cell growth effect as compared with that on the control” value amounted to 134%. For the same molecule, the “cell growth effect as compared with that on the control” value (100 μM) amounted to 138%.

As for `CC[C@H](C)[C@H](N)C(=O)NCC(=O)N[C@@H](CO)C(=O)O` (racemic) [IGS, isoleucyl-glycyl-serine], the “concentration at which significant difference from control could be noted” value is at least 10 µM. Also, the “cell growth effect as compared with that on the control” value (0.3 μM) is reported as 98%. The “cell growth effect as compared with that on the control” value (1 μM) came to 103%. Further, where the note is “3 μM”, the “cell growth effect as compared with that on the control” value is listed as 106%. Where the note is “10 μM”, the “cell growth effect as compared with that on the control” value was 124%. Besides, under “30 μM”, the “cell growth effect as compared with that on the control” value worked out at 134%. Further, for the setting “100 μM”, the “cell growth effect as compared with that on the control” value was 133%.

On to `CC[C@H](C)[C@H](NC(=O)[C@@H]1CCCN1)C(=O)NCC(=O)O` (racemic) [PIG, prolyl-isoleucyl-glycine], for which the “concentration at which significant difference from control could be noted” value is at least 1 µM. Further, for the setting “0.3 μM”, the “cell growth effect as compared with that on the control” value was 101%. Where the note is “1 μM”, the “cell growth effect as compared with that on the control” value is 103%. Moreover, the “cell growth effect as compared with that on the control” value (3 μM) was found to be 113%. Further, the “cell growth effect as compared with that on the control” value (10 μM) was determined as 132%. Further, under “30 μM”, the “cell growth effect as compared with that on the control” value was found to be 131%. The “cell growth effect as compared with that on the control” value (100 μM) is 134%.

On to `CC[C@H](C)[C@H](NC(=O)[C@@H]1CCCN1)C(=O)NCC(=O)N[C@@H](CO)C(=O)O` (racemic) [PIGS, prolyl-isoleucyl-glycyl-serine], for which the “concentration at which significant difference from control could be noted” value is at least 3 µM. In addition, the “cell growth effect as compared with that on the control” value (0.3 μM) is 104%. Besides, the “cell growth effect as compared with that on the control” value (1 μM) was determined as 103%. Under “3 μM”, the “cell growth effect as compared with that on the control” value is 108%. Moreover, the “cell growth effect as compared with that on the control” value (10 μM) amounted to 110%. In addition, the “cell growth effect as compared with that on the control” value (30 μM) is 127%. Moreover, the “cell growth effect as compared with that on the control” value (100 μM) came out at 133%.
